From patent US20100076015A1, “Aminopyridine Derivatives” (VANTIA LIMITED, priority 2008, published 2010)
pIC50: −log10 of the molar value.

These compounds were tested against T1, Human KLK1 (Homo sapiens, UniProt P06870) (assay: Determination of the IC50 for KLK1 (fluorogenic substrate H-DVal-Leu-Arg-AFC)). Conditions: 37° C.
T1 construct: purchased Callbiochem (Calbiochem)
Type: biochemical
Outline: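 Human KLK1 incubated at 37 °C with fluorogenic substrate H-DVal-Leu-Arg-AFC and a range of test compound concentrations. Residual activity was taken as initial reaction rate from absorbance change at 410 nm, and the IC50 derived from it.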

T1 sequence (P06870 25-262): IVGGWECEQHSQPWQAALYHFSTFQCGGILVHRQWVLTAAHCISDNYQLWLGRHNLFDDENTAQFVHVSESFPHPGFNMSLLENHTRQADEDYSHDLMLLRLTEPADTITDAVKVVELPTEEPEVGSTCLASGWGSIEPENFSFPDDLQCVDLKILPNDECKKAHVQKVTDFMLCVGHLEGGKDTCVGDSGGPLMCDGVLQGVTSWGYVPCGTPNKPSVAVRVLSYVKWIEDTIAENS

| Compound | pIC50 |
| --- | --- |
| Cc1cc[nH]c1C(=O)N[C@@H](Cc1ccc(F)c(F)c1)C(=O)NCc1ccc(N)nc1C [Example 286, 3-Methyl-1H-pyrrole-2-carboxylic acid [(S)-1-[(6-amino-2-methyl-pyridin-3-ylmethyl)-carbamoyl]-2-(3,4-difluoro-phenyl)-ethyl]-amide] | 8.37 |
| CCN1CCC[C@@H]1C(=O)N[C@@H](Cc1cccc(C)c1)C(=O)NCc1ccc(N)nc1 [Example 137, (R)-1-Ethyl-pyrrolidine-2-carboxylic acid {(S)-1-[(6-amino-pyridin-3-ylmethyl)-carbamoyl]-2-m-tolyl-ethyl}-amide] | 6.54 |
| CN1CCC[C@@H]1C(=O)N[C@@H](Cc1ccc(C(C)(C)C)cc1)C(=O)NCc1ccc(N)nc1 [Example 102, (R)-1-Methyl-pyrrolidine-2-carboxylic acid [(S)-1-[(6-amino-pyridin-3-ylmethyl)-carbamoyl]-2-(4-tert-butyl-phenyl)-ethyl]-amide] | 6.59 |
| CCC(C)[C@@H](N)C(=O)N[C@@H](Cc1ccc(Cl)c(Cl)c1)C(=O)NCc1ccc(N)nc1 (stereo partly drawn) [Example 35, (R)-2-Amino-3-methyl-pentanoic acid [(S)-1-[(6-amino-pyridin-3-ylmethyl)-carbamoyl]-2-(3,4-dichloro-phenyl)-ethyl]-amide] | 9.33 |
| CCCN1CCC[C@@H]1C(=O)N[C@@H](Cc1ccc(F)cc1)C(=O)NCc1ccc(N)nc1 [Example 139, (R)-1-Propyl-pyrrolidine-2-carboxylic acid [(S)-1-[(6-amino-pyridin-3-ylmethyl)-carbamoyl]-2-(4-fluoro-phenyl)-ethyl]-amide] | 8.43 |
| CN1CCC[C@H]1C(=O)N[C@@H](Cc1ccc(F)c(F)c1)C(=O)NCc1ccc(N)nc1 [Example 116, (S)-1-Methyl-pyrrolidine-2-carboxylic acid [(S)-1-[(6-amino-pyridin-3-ylmethyl)-carbamoyl]-2-(3,4-difluoro-phenyl)-ethyl]-amide] | 7.79 |
| CCC(C)[C@@H](N)C(=O)N[C@@H](CC1CCCC2CCCCC21)C(=O)NCc1c(C)cc(N)nc1C (stereo partly drawn) [Example 208, (R)-2-Amino-3-methyl-pentanoic acid [(S)-1-[(6-amino-2,4-dimethyl-pyridin-3-ylmethyl)-carbamoyl]-2-(decahydro-naphthalen-1-yl)-ethyl]-amide] | 7.49 |
| (S)—N-{(R)-1-[(6-Amino-pyridin-3-ylmethyl)-carbamoyl]-2,2-dicyclohexyl-ethyl}-2-dimethylamino-propionamide [Example 434] | 7.36 |
| Cc1cccc(C[C@H](NC(=O)c2cc3ccccc3[nH]2)C(=O)NCc2ccc(N)nc2)c1 [Example 317, 1H-Indole-2-carboxylic acid {(S)-1-[(6-amino-pyridin-3-ylmethyl)-carbamoyl]-2-m-tolyl-ethyl}-amide] | 7.83 |
| CN1CCC[C@@H]1C(=O)N[C@@H](Cc1cc(F)cc(F)c1)C(=O)NCc1ccc(N)nc1 [Example 96, (R)-1-Methyl-pyrrolidine-2-carboxylic acid [(S)-1-[(6-amino-pyridin-3-ylmethyl)-carbamoyl]-2-(3,5-difluoro-phenyl)-ethyl]-amide] | 8.26 |
| CC(C)CN1CCC[C@@H]1C(=O)N[C@@H](Cc1ccc(F)c(F)c1)C(=O)NCc1ccc(N)nc1 [Example 133, (R)-1-Isobutyl-pyrrolidine-2-carboxylic acid [(S)-1-[(6-amino-pyridin-3-ylmethyl)-carbamoyl]-2-(3,4-difluoro-phenyl)-ethyl]-amide] | 7.78 |
| COc1ccc(C[C@H](NC(=O)[C@H]2CCCN2C)C(=O)NCc2ccc(N)nc2)cc1 [Example 100, (R)-1-Methyl-pyrrolidine-2-carboxylic acid [(S)-1-[(6-amino-pyridin-3-ylmethyl)-carbamoyl]-2-(4-methoxy-phenyl)-ethyl]-amide] | 7.07 |
| Nc1ccc(CNC(=O)[C@H](Cc2cccc3ccccc23)NC(=O)c2cc3cc(F)ccc3[nH]2)cn1 [Example 301, 5-Fluoro-1H-indole-2-carboxylic acid {(S)-1-[(6-amino-pyridin-3-ylmethyl)-carbamoyl]-2-naphthalen-1-yl-ethyl}-amide] | 7.96 |
| Cc1nc(N)ccc1CNC(=O)[C@H](Cc1ccccc1C(F)(F)F)NC(=O)c1cc2ccccc2[nH]1 [Example 322, 1H-Indole-2-carboxylic acid [(S)-1-[(6-amino-2-methyl-pyridin-3-ylmethyl)-carbamoyl]-2-(2-trifluoromethyl-phenyl)-ethyl]-amide] | 7.91 |
| Cc1cc[nH]c1C(=O)N[C@@H](Cc1ccc(F)cc1)C(=O)NCc1ccc(N)nc1 [Example 261, 3-Methyl-1H-pyrrole-2-carboxylic acid [(S)-1-[(6-amino-pyridin-3-ylmethyl)-carbamoyl]-2-(4-fluoro-phenyl)-ethyl]-amide] | 7.88 |
| Cc1nc(N)ccc1CNC(=O)[C@H](Cc1ccc(Cl)c(Cl)c1)NC(=O)[C@H]1CCc2ccccc2N1 [Example 202, (R)-1,2,3,4-Tetrahydro-quinoline-2-carboxylic acid [(S)-1-[(6-amino-2-methyl-pyridin-3-ylmethyl)-carbamoyl]-2-(3,4-dichloro-phenyl)-ethyl]-amide] | 7.65 |
| CN[C@@H](C)C(=O)N[C@@H](C(=O)NCc1ccc(N)nc1)C(C1CCCCC1)C1CCCCC1 [Example 218, (S)—N-{(R)-1-[(6-Amino-pyridin-3-ylmethyl)-carbamoyl]-2,2-dicyclohexyl-ethyl}-2-methylamino-propionamide] | 7.45 |
| CN1CCC[C@@H]1C(=O)N(C)[C@@H](Cc1ccccc1)C(=O)NCc1ccc(N)nc1 [Example 225, (R)-1-Methyl-pyrrolidine-2-carboxylic acid {(S)-1-[(6-amino-pyridin-3-ylmethyl)-carbamoyl]-2-phenyl-ethyl}-methyl-amide] | 7.29 |
| Cc1cc(C)c(C(=O)N[C@@H](Cc2c[nH]c3ccccc23)C(=O)NCc2ccc(N)nc2C)[nH]1 [Example 283, 3,5-Dimethyl-1H-pyrrole-2-carboxylic acid [(S)-1-[(6-amino-2-methyl-pyridin-3-ylmethyl)-carbamoyl]-2-(1H-indol-3-yl)-ethyl]-amide] | 8.29 |
| Cc1cc(C)c(C(=O)N[C@@H](Cc2csc3ccccc23)C(=O)NCc2ccc(N)nc2)[nH]1 [Example 250, 3,5-Dimethyl-1H-pyrrole-2-carboxylic acid {(S)-1-[(6-amino-pyridin-3-ylmethyl)-carbamoyl]-2-benzo[b]thiophen-3-yl-ethyl}-amide] | 9.10 |
| Nc1ccc(CNC(=O)[C@H](Cc2ccc(Cl)c(Cl)c2)NC(=O)[C@H](N)c2ccccc2)cn1 [Example 57, (S)-2-((R)-2-Amino-2-phenyl-acetylamino)-N-(6-amino-pyridin-3-ylmethyl)-3-(3,4-dichloro-phenyl)-propionamide] | 8.34 |

Second part, the compound after the results:

| pIC50 | Compound |
| --- | --- |
| 8.57 | CN[C@H](Cc1ccccc1)C(=O)N[C@@H](Cc1cccc(Cl)c1)C(=O)NCc1ccc(N)nc1 [Example 342, (R)—N-[(S)-1-[(6-Amino-pyridin-3-ylmethyl)-carbamoyl]-2-(3-chloro-phenyl)-ethyl]-2-methylamino-3-phenyl-propionamide] |
| 7.77 | Cc1nc(N)ccc1CNC(=O)[C@H](Cc1ccc(F)c(F)c1)NC(=O)[C@H](C)N1CCCCC1 [Example 432, (S)—N-[(S)-1-[(6-Amino-2-methyl-pyridin-3-ylmethyl)-carbamoyl]-2-(3,4-difluoro-phenyl)-ethyl]-2-piperidin-1-yl-propionamide] |
| 8.10 | CCN(C)[C@@H](C)C(=O)N[C@@H](Cc1cccc(C)c1)C(=O)NCc1ccc(N)nc1 [Example 413, (S)—N-{(S)-1-[(6-Amino-pyridin-3-ylmethyl)-carbamoyl]-2-m-tolyl-ethyl}-2-(ethyl-methyl-amino)-propionamide] |
| 7.83 | CC(C(=O)N[C@@H](Cc1cc(F)cc(F)c1)C(=O)NCc1ccc(N)nc1)N1CCCCC1 (stereo partly drawn) [Example 425, N-[(S)-1-[(6-Amino-pyridin-3-ylmethyl)-carbamoyl]-2-(3,5-difluoro-phenyl)-ethyl]-2-piperidin-1-yl-propionamide] |
| 7.55 | CCC(C)[C@H](C(=O)N[C@@H](Cc1cc(F)cc(F)c1)C(=O)NCc1ccc(N)nc1)N(C)C (stereo partly drawn) [Example 424, (R)-2-Dimethylamino-3-methyl-pentanoic acid [(S)-1-[(6-amino-pyridin-3-ylmethyl)-carbamoyl]-2-(3,5-difluoro-phenyl)-ethyl]-amide] |
| 6.75 | Nc1ccc(CNC(=O)[C@H](Cc2ccc(F)c(F)c2)NC(=O)c2nc3ccccc3[nH]2)cn1 [Example 328, 1H-Benzoimidazole-2-carboxylic acid [(S)-1-[(6-amino-pyridin-3-ylmethyl)-carbamoyl]-2-(3,4-difluoro-phenyl)-ethyl]-amide] |
| 8.28 | CCN(CC)[C@@H](C)C(=O)N[C@@H](Cc1cccc(C)c1)C(=O)NCc1ccc(N)nc1 [Example 415, (S)—N-{(S)-1-[(6-Amino-pyridin-3-ylmethyl)-carbamoyl]-2-m-tolyl-ethyl}-2-diethylamino-propionamide] |
| 8.11 | CCC(C)[C@@H](C(=O)N[C@@H](Cc1ccc(F)c(F)c1)C(=O)NCc1ccc(N)nc1)N(C)C(C)C (stereo partly drawn) [Example 349, (S)-2-(Isopropyl-methyl-amino)-3-methyl-pentanoic acid [(S)-1-[(6-amino-pyridin-3-ylmethyl)-carbamoyl]-2-(3,4-difluoro-phenyl)-ethyl]-amide] |
| 7.07 | CCN(CC)[C@H](CO)C(=O)N[C@@H](Cc1ccc(F)c(F)c1)C(=O)NCc1ccc(N)nc1 [Example 363, (R)—N-[(S)-1-[(6-Amino-pyridin-3-ylmethyl)-carbamoyl]-2-(3,4-difluoro-phenyl)-ethyl]-2-diethylamino-3-hydroxy-propionamide] |
| 7.67 | C[C@@H](C(=O)N[C@@H](Cc1ccc(F)c(F)c1)C(=O)NCc1ccc(N)nc1)N(C)C [Example 344, (S)—N-[(S)-1-[(6-Amino-pyridin-3-ylmethyl)-carbamoyl]-2-(3,4-difluoro-phenyl)-ethyl]-2-dimethylamino-propionamide] |
